From PMC10408569, “Recruitment of hexahydroquinoline as anticancer scaffold targeting inhibition of wild and mutants EGFR (EGFR^WT, EGFR^T790M, and EGFR^L858R)” (Journal of Enzyme Inhibition and Medicinal Chemistry, 2023)

Legend:
[1] = system: K-562; experiment: NCI-60 anticancer screening (SRB); assay type: cell-based; settings: Homo sapiens, K562; K-562, leukemia; one dose 10 μM; read-out: Growth Inhibition Percentage (GI %)
[2] = system: RPMI-8226; experiment: NCI-60 anticancer screening (SRB); assay type: cell-based; settings: Homo sapiens; RPMI-8226, leukemia; one dose 10 μM; read-out: Growth Inhibition Percentage (GI %)
[3] = system: SR; experiment: NCI-60 anticancer screening (SRB); assay type: cell-based; settings: Homo sapiens, leukemia, one dose 10 μM, read-out: Growth Inhibition Percentage (GI %)
[4] = system: EKVX; experiment: NCI-60 anticancer screening (SRB); assay type: cell-based; settings: Homo sapiens, NSC lung cancer, one dose 10 μM, read-out: Growth Inhibition Percentage (GI %)
[5] = system: HOP-62; experiment: NCI-60 anticancer screening (SRB); assay type: cell-based; settings: Homo sapiens; HOP-62, NSC lung cancer; one dose 10 μM; read-out: Growth Inhibition Percentage (GI %)
[6] = system: HOP-92; experiment: NCI-60 anticancer screening (SRB); assay type: cell-based; settings: Homo sapiens; HOP-92, NSC lung cancer; one dose 10 μM; read-out: Growth Inhibition Percentage (GI %)
[7] = system: NCI-H226; experiment: NCI-60 anticancer screening (SRB); assay type: cell-based; settings: Homo sapiens; NCI-H226, NSC lung cancer; one dose 10 μM; read-out: Growth Inhibition Percentage (GI %)
[8] = system: NCI-H460; experiment: NCI-60 anticancer screening (SRB); assay type: cell-based; settings: Homo sapiens; NCI-H460, NSC lung cancer; one dose 10 μM; read-out: Growth Inhibition Percentage (GI %)
[9] = system: NCI-H522; experiment: NCI-60 anticancer screening (SRB); assay type: cell-based; settings: Homo sapiens; NCI-H522, NSC lung cancer; one dose 10 μM; read-out: Growth Inhibition Percentage (GI %)
[10] = system: HCT-116; experiment: NCI-60 anticancer screening (SRB); assay type: cell-based; settings: Homo sapiens; HCT-116, colon cancer; one dose 10 μM; read-out: Growth Inhibition Percentage (GI %)
[11] = system: HT29; experiment: NCI-60 anticancer screening (SRB); assay type: cell-based; settings: Homo sapiens, HT-29; HT29, colon cancer; one dose 10 μM; read-out: Growth Inhibition Percentage (GI %)
[12] = system: SF-268; experiment: NCI-60 anticancer screening (SRB); assay type: cell-based; settings: Homo sapiens; SF-268, CNS cancer; one dose 10 μM; read-out: Growth Inhibition Percentage (GI %)
[13] = system: SF-295; experiment: NCI-60 anticancer screening (SRB); assay type: cell-based; settings: Homo sapiens; SF-295, CNS cancer; one dose 10 μM; read-out: Growth Inhibition Percentage (GI %)
[14] = system: SF-539; experiment: NCI-60 anticancer screening (SRB); assay type: cell-based; settings: Homo sapiens; SF-539, CNS cancer; one dose 10 μM; read-out: Growth Inhibition Percentage (GI %)
[15] = system: SNB-19; experiment: NCI-60 anticancer screening (SRB); assay type: cell-based; settings: Homo sapiens; SNB-19, CNS cancer; one dose 10 μM; read-out: Growth Inhibition Percentage (GI %)
[16] = system: SNB-75; experiment: NCI-60 anticancer screening (SRB); assay type: cell-based; settings: Homo sapiens; SNB-75, CNS cancer; one dose 10 μM; read-out: Growth Inhibition Percentage (GI %)
[17] = system: U251; experiment: NCI-60 anticancer screening (SRB); assay type: cell-based; settings: Homo sapiens, U-251; U251, CNS cancer; one dose 10 μM; read-out: Growth Inhibition Percentage (GI %)
[18] = system: LOX IMVI; experiment: NCI-60 anticancer screening (SRB); assay type: cell-based; settings: Homo sapiens, melanoma, one dose 10 μM, read-out: Growth Inhibition Percentage (GI %)
[19] = system: MALME-3M; experiment: NCI-60 anticancer screening (SRB); assay type: cell-based; settings: Homo sapiens, melanoma, one dose 10 μM, read-out: Growth Inhibition Percentage (GI %)
[20] = system: M14; experiment: NCI-60 anticancer screening (SRB); assay type: cell-based; settings: Homo sapiens; M14, melanoma; one dose 10 μM; read-out: Growth Inhibition Percentage (GI %)
[21] = system: SK-MEL-2; experiment: NCI-60 anticancer screening (SRB); assay type: cell-based; settings: Homo sapiens; SK-MEL-2, melanoma; one dose 10 μM; read-out: Growth Inhibition Percentage (GI %)
[22] = system: SK-MEL-5; experiment: NCI-60 anticancer screening (SRB); assay type: cell-based; settings: Homo sapiens; SK-MEL-5, melanoma; one dose 10 μM; read-out: Growth Inhibition Percentage (GI %)
[23] = system: UACC-257; experiment: NCI-60 anticancer screening (SRB); assay type: cell-based; settings: Homo sapiens; UACC-257, melanoma; one dose 10 μM; read-out: Growth Inhibition Percentage (GI %)
[24] = system: IGROV1; experiment: NCI-60 anticancer screening (SRB); assay type: cell-based; settings: Homo sapiens, IGROV-1; IGROV1, ovarian cancer; one dose 10 μM; read-out: Growth Inhibition Percentage (GI %)
[25] = system: OVCAR-5; experiment: NCI-60 anticancer screening (SRB); assay type: cell-based; settings: Homo sapiens; OVCAR-5, ovarian cancer; one dose 10 μM; read-out: Growth Inhibition Percentage (GI %)
[26] = system: 786-0; experiment: NCI-60 anticancer screening (SRB); assay type: cell-based; settings: Homo sapiens; 786-0, renal cancer; one dose 10 μM; read-out: Growth Inhibition Percentage (GI %)
[27] = system: A498; experiment: NCI-60 anticancer screening (SRB); assay type: cell-based; settings: Homo sapiens; A498, renal cancer; one dose 10 μM; read-out: Growth Inhibition Percentage (GI %)
[28] = system: ACHN; experiment: NCI-60 anticancer screening (SRB); assay type: cell-based; settings: Homo sapiens, renal cancer, one dose 10 μM, read-out: Growth Inhibition Percentage (GI %)
[29] = system: CAKI-1; experiment: NCI-60 anticancer screening (SRB); assay type: cell-based; settings: Homo sapiens; CAKI-1, renal cancer; one dose 10 μM; read-out: Growth Inhibition Percentage (GI %)
[30] = system: SN 12C; experiment: NCI-60 anticancer screening (SRB); assay type: cell-based; settings: Homo sapiens, SN12C; SN 12C, renal cancer; one dose 10 μM; read-out: Growth Inhibition Percentage (GI %)
[31] = system: DU-145; experiment: NCI-60 anticancer screening (SRB); assay type: cell-based; settings: Homo sapiens; DU-145, prostate cancer; one dose 10 μM; read-out: Growth Inhibition Percentage (GI %)
[32] = system: T-47D; experiment: NCI-60 anticancer screening (SRB); assay type: cell-based; settings: Homo sapiens, T47D, breast cancer, one dose 10 μM, read-out: Growth Inhibition Percentage (GI %)

| SMILES | inhibition at 10 µM [1] [%] | inhibition at 10 µM [2] [%] | inhibition at 10 µM [3] [%] | inhibition at 10 µM [4] [%] | inhibition at 10 µM [5] [%] | inhibition at 10 µM [6] [%] | inhibition at 10 µM [7] [%] | inhibition at 10 µM [8] [%] | inhibition at 10 µM [9] [%] | inhibition at 10 µM [10] [%] | inhibition at 10 µM [11] [%] | inhibition at 10 µM [12] [%] | inhibition at 10 µM [13] [%] | inhibition at 10 µM [14] [%] | inhibition at 10 µM [15] [%] | inhibition at 10 µM [16] [%] | inhibition at 10 µM [17] [%] | inhibition at 10 µM [18] [%] | inhibition at 10 µM [19] [%] | inhibition at 10 µM [20] [%] | further results |
| --- | --- | --- | --- | --- | --- | --- | --- | --- | --- | --- | --- | --- | --- | --- | --- | --- | --- | --- | --- | --- | --- |
| CCOC(=O)C1=C(N)N(c2ccccc2)C2=C(C(=O)CC(C)(C)C2)C1c1ccc([N+](=O)[O-])cc1 (racemic) [8i, (±)-Ethyl 2-amino-4–(4-nitrophenyl)-7,7-dimethyl-5-oxo-1-phenyl-1,4,5,6,7,8-hexahydroquinoline-3-carboxylate] | 16 | 17 | 34 | 14 | < 10 | < 10 | 12 | < 10 | 21 | 16 | < 10 | < 10 | < 10 | < 10 | < 10 | < 10 | < 10 | 11 | < 10 | < 10 | inhibition at 10 µM [21]: < 10%; inhibition at 10 µM [22]: < 10%; inhibition at 10 µM [23]: < 10%; inhibition at 10 µM [24]: < 10%; inhibition at 10 µM [25]: < 10%; inhibition at 10 µM [26]: < 10%; inhibition at 10 µM [27]: < 10%; inhibition at 10 µM [28]: 12%; inhibition at 10 µM [29]: 32%; inhibition at 10 µM [30]: < 10%; inhibition at 10 µM [31]: < 10%; inhibition at 10 µM [32]: < 10%; melting point: 164 to 166 °C |
| CCOC(=O)C1=C(N)N(c2ccc(C)cc2)C2=C(C(=O)CC(C)(C)C2)C1c1ccccc1Cl (racemic) [6b, (±)-Ethyl 2-amino-4–(2-chlorophenyl)-7,7-dimethyl-1–(4-methylphenyl)-5-oxo-1,4,5,6,7,8-hexahydroquinoline-3-carboxylate] | < 10 | 22 | < 10 | 15 | < 10 | < 10 | < 10 | 20 | 17 | 17 | 30 | < 10 | < 10 | < 10 | 12 | 29 | < 10 | < 10 | < 10 | < 10 | inhibition at 10 µM [21]: < 10%; inhibition at 10 µM [22]: 17%; inhibition at 10 µM [23]: < 10%; inhibition at 10 µM [24]: < 10%; inhibition at 10 µM [25]: < 10%; inhibition at 10 µM [26]: < 10%; inhibition at 10 µM [27]: < 10%; inhibition at 10 µM [28]: < 10%; inhibition at 10 µM [29]: 31%; inhibition at 10 µM [30]: < 10%; inhibition at 10 µM [31]: < 10%; inhibition at 10 µM [32]: 21%; melting point: 240 to 242 °C |
| CCOC(=O)C1=C(N)N(c2ccccc2)C2=C(C(=O)CC(C)(C)C2)C1c1ccc(Cl)cc1 (racemic) [8c, (±)-Ethyl 2-amino-4–(4-chlorophenyl)-7,7-dimethyl-5-oxo-1-phenyl-1,4,5,6,7,8-hexahydroquinoline-3-carboxylate] | 82 | 92 | 87 | 72 | 19 | 30 | 30 | 87 | 62 | 81 | 65 | 42 | 79 | 64 | 85 | 27 | 58 | 59 | 84 | 72 | inhibition at 10 µM [21]: 70%; inhibition at 10 µM [22]: 72%; inhibition at 10 µM [23]: 72%; inhibition at 10 µM [24]: 40%; inhibition at 10 µM [25]: 42%; inhibition at 10 µM [26]: 33%; inhibition at 10 µM [27]: 33%; inhibition at 10 µM [28]: 78%; inhibition at 10 µM [29]: 50%; inhibition at 10 µM [30]: 46%; inhibition at 10 µM [31]: 42%; inhibition at 10 µM [32]: 70%; melting point: 215 to 217 °C |
